Entries after “also recorded” stand apart in the source; their conditions may differ.

For one experiment, the system named is P. acnes (CCUG 1794T). Kind of experiment: MMC99 assay, P. acnes. In kind it is cell-based. As to the method: (§1) The antimicrobial effects of the peptides 232 (SEQ ID NO: 78), and 220 (SEQ ID NO:67) were analysed by MMC99 (minimal microbicidal concentration) assay against S. aureus (CCUG 1800), MRSA (CCUG 41879), P. aeruginosa (ATCC 15442), E. coli (CCUG 31246), S. pyogenes (CCUG 4207), P. acnes (CCUG 1794T), S. epidermidis (ATCC12228), K. pneumoniae (ATCC 13883), A. baumannii (ATCC 19606), and C. albicans (ATCC 64549). The peptides were purchased from Biopeptide Company (San Diego, Calif., USA) and Bachem AG (Bubendorf, Switzerland) and results are presented in Table 8A and 8B respectively.
(§2) Peptides were serially diluted in two different assay medium, 1% BHI medium (brain-heart infusion medium) or 50% heat inactivated simulated wound fluid (SWF), and thereafter incubated with the microorganisms for 2 hours. Drops of the suspension were placed on blood agar plates. The MMC99 values, i.e. the lowest peptide concentration needed to achieve a 99% reduction of viable microorganisms, were recorded. As presented in Table 8, all the peptides have the ability to kill microorganisms frequently appearing in infections.

For a further experiment, the system named is S. aureus. Kind of experiment: Antimicrobial effect in infected wounds, ex vivo model on pig skin. As to conditions: S. aureus in PBS/serum (50/50), peptide in H2O 0.1, 0.5 and 2 mg/ml, single administration, 4 hours. An excerpt:
FIG. 5. Dose response effect of, peptide 232 (SEQ ID NO 78)(A) and peptide 220 (SEQ ID NO 67)(B) on bacterial colonization of infected wounds in pig skin. […] Results are presented as relative bacterial survival (%) compared to control group±SEM (n=10 wounds). Statistical significance was estimated by Student's t test. *=p<0.05, **=p<0.01, ***=p<0.001.
The antimicrobial effects of the peptide 232 (SEQ ID NO: 78), and the peptide 220 (SEQ ID NO:67) were investigated in an ex vivo model on pig skin. The wounds were inoculated with S. aureus in the presence of PBS/Serum 50/50. Two hours after inoculation the wounds were treated with a single administration of the peptide or placebo (H2O). Four hours after the treatment bacteria were harvested and viable counts of each wound were determined.

The test system of experiment [1] is TNF-α production in LPS stimulated THP-1 cells. Kind of experiment: Inhibition of TNF-α production in LPS stimulated THP-1 cells (ELISA). As to conditions: screen 2, mean relative secretion, basal = 0%; for TNF-α at 4 μM peptide / TNF-α at 10 μM peptide: stimulated = 100%; for TNF-α at 40 μM peptide: LPS-stimulated level without peptide = 100%. The class given is cell-based, human.

Another experiment concerns E. coli (CCUG 31246). Kind of experiment: MMC99 assay, E. coli. The class given is cell-based. As for the experimental part: as §1, §2
For another experiment, the system named is C. albicans (ATCC 64549). Kind of experiment: MMC99 assay, C. albicans. In kind it is cell-based. As for the experimental part:
as §1, §2

Experiment [2] has as its system A. baumannii (ATCC 19606). Kind of experiment: MMC99 assay, A. baumannii. In kind it is cell-based. As for the experimental part:
as §1, §2

Experiment [3] concerns S. epidermidis (ATCC12228). Kind of experiment: MMC99 assay, S. epidermidis. The class given is cell-based. As to the method:
as §1, §2

Experiment [4] relates to K. pneumoniae (ATCC 13883). Kind of experiment: MMC99 assay, K. pneumoniae. In kind it is cell-based. As to the method:
as §1, §2

As to QSLARKLFQWLRNLRKVA [Peptide 220], the MMC99 is less than 3 µg/mL in the experiment on P. acnes (CCUG 1794T) (1% BHI), 100 µg/mL in the experiment with P. acnes (CCUG 1794T) (50% SWF), 3 µg/mL in the experiment on E. coli (CCUG 31246) (1% BHI) and greater than 200 µg/mL in the experiment with E. coli (CCUG 31246) (50% SWF). Also, the “bacterial colonization of infected wounds in pig skin (bacterial counts vs control)” value in the experiment with S. aureus is listed as “significant reduction in bacterial counts; also recorded: highly effective anti-infectious agents when applied locally”. The “TNF-α at 4 μM peptide” value in experiment [1] was 70.8%. The “TNF-α at 10 μM peptide” value in experiment [1] was 37.0%. In addition, in experiment [1], the “TNF-α at 40 μM peptide” value was found to be 11.6%.
With RRLWRRWMRKVL [Peptide 232], the MMC99 in the experiment on P. acnes (CCUG 1794T) (1% BHI) was 6 µg/mL; in the experiment on P. acnes (CCUG 1794T) (50% SWF), greater than 200 µg/mL; in the experiment on C. albicans (ATCC 64549) (1% BHI), 3 µg/mL; with C. albicans (ATCC 64549) (50% SWF) it was 50 µg/mL; in experiment [2] (1% BHI) it was 3 µg/mL; in experiment [2] (50% SWF) it was 200 µg/mL. Further, the MMC99 in experiment [3] (1% BHI) is 3 µg/mL; in experiment [3] (50% SWF), 50 µg/mL; in the experiment on E. coli (CCUG 31246) (1% BHI) it was 5 µg/mL; in the experiment with E. coli (CCUG 31246) (50% SWF) it was greater than 176 µg/mL; in experiment [4] (1% BHI), 6 µg/mL; in experiment [4] (50% SWF), greater than 200 µg/mL. In the experiment with S. aureus, the “bacterial colonization of infected wounds in pig skin (bacterial counts vs control)” value was “significant reduction in bacterial counts; also recorded: highly effective anti-infectious agents when applied locally”. Further, the “TNF-α at 4 μM peptide” value in experiment [1] came to 96.9%. Moreover, in experiment [1], the “TNF-α at 10 μM peptide” value is on record as 66.6%. Besides, the “TNF-α at 40 μM peptide” value in experiment [1] stood at 33.2%.

(Values after patent publication US20140031296A1, “NEW SYNTHETIC PEPTIDES AND THEIR USE” (PERGAMUM AB, priority 2011, published 2014).)
